Experimental data reported in patent US20260028352A1, “MACROCYCLIC IMIDAZO [1,2-B] PYRIDAZINE DERIVATIVE, PREPARATION METHOD THEREFOR, AND USE THEREOF” (SUZHOU LANGRUI BIOPHARMACEUTICAL CO., LTD., priority 2022, published 2026).

Test system: Ba/F3-TPM3-NTRK1-G667C cells
Assay: Growth inhibition of Ba/F3-TPM3-NTRK1-G667C cells (Cell Titer-Glo)
Assay type: cell-based
Conditions: 72 hours, CTG; read-out: inhibitory activity IC50 Ba/F3-TPM3-NTRK1-G667C
Method: Then the solutions were subjected to a gradient dilution with DMSO: a clean, sterile V-bottom 96-well microplate was placed in the biological safety cabinet. First, 4 μL of DMSO was added to well B2 and 10 μL of DMSO was added to wells B3-B11 respectively; Next, 6 μL of the 10 mM solution was added to well B2. The microplate was pipetted up and down 10 times for mixing. […] Mixing was performed by pipetting up and down 10 times. The solution was diluted in order until well B10. only DMSO was added to well B11 (no compound).
6× Compound Solution Preparation (6-fold dilution, × represents dilution factor): (Initial final concentration: 10 μM), a clean, sterile V-bottom 96-well microplate was placed in the biological safety cabinet. 99 μL of cell culture medium was added to each well from B2 to G11. By using a 12-channel pipettor, 1 μL of the compound solution prepared in the previous step was added into the corresponding wells. The solutions were pipetted up and down 10 times to mix the solutions. The highest concentration of compound in this step was 60 μM.
Treatment of Cells: the above-prepared cell culture plate was taken out of the incubator. 20 μL of compound solution from each well was added to the corresponding cell culture wells. The lowest pipetting speed was used and touching the bottom of the plate was avoided. The culture plate was gently shaked to mix the compound solution, then the plate was returned to the incubator for further culture for 72 hours.
The highest treatment concentration of the compound was 10 μM. After 72 hours of treatment, the Cell Titer-Glo (CTG) assay was performed. First, the cell culture plate was removed from the CO2 incubator and allowed to stand at room temperature for 30 minutes to ensure uniform temperature of the plate. The pre-prepared Cell Titer-Glo reagent (following the manufacturer's instructions) was taken and allowed to stand at room temperature to thaw. 60 μL of Cell Titer-Glo reagent was added to each well containing cells. The cells were incubated on a horizontal shaker in a dark place at 225 rpm for 1 hour at room temperature. Then, a Tecan Spark microplate reader was used to read the plate using chemiluminescence according to the manufacturer's instructions.

Row | SMILES | IC50 [nM]
1 | Fc1cnc2c(c1)[C@H]1CCCN1c1ccc3ncc(n3n1)-c1cc(ccn1)CCO2 [Example I-55, (3^2R,E)-4^5-fluoro-5-oxa-2(3,6)-imidazo[1,2-b]pyridazina-1(2,4),4(3,2)-dipyridina-3(1,2)-pyrrolidinacycloheptaphane] | < 100
2 | C[C@@H]1Cc2cc(ncn2)-c2cnc3ccc(nn23)N[C@H](C)c2cc(F)ccc2O1 [Example I-35, (4R,7R,E)-5^5-fluoro-4,7-dimethyl-6-oxa-3-aza-2(3,6)-imidazo[1,2-b]pyridazina-1(4,6)-pyrimidina-5(1,2)-benzenacyclooctaphane] | < 100
3 | C[C@H]1Nc2ccc3ncc(n3n2)-c2cc(ccn2)N2CC[C@H](C2)Oc2ccc(F)cc21 [Example I-41, (3^3R,6R,E)-5^4-fluoro-6-methyl-4-oxa-7-aza-1(3,6)-imidazo[1,2-b]pyridazina-2(2,4)-pyridina-3(1,3)-pyrrolidina-5(1,2)-benzenacycloheptaphane] | < 100
4 | C[C@H]1Nc2ccc3ncc(n3n2)-c2cc(ccn2)N2CC[C@@H](C2)Oc2ccc(F)cc21 [Example I-42, (3^3S,6R,E)-5^4-fluoro-6-methyl-4-oxa-7-aza-1(3,6)-imidazo[1,2-b]pyridazina-2(2,4)-pyridina-3(1,3)-pyrrolidina-5(1,2)-benzenacycloheptaphane] | < 100
5 | Fc1ccc2c(c1)[C@H]1CCCN1c1ccc3ncc(n3n1)-c1nccc(n1)CCO2 [Example I-85, (3^2R,E)-4^5-fluoro-5-oxa-2(3,6)-imidazo[1,2-b]pyridazina-1(2,4)-pyrimidina-3(1,2)-pyrrolidina-4(1,2)-benzenacycloheptaphane] | < 100
6 | Fc1ccc2c(c1)[C@H]1CCCN1c1ccc3ncc(n3n1)-c1cc(ncn1)CO2 [Example I-57, (14bR,E)-13-fluoro-14b,15,16,17-tetrahydro-9H-1,19-etheno-4,8-(metheno)benzo[n]imidazo[5,1-h]pyrrolo[1,2-l][1]oxa[4,6,9,10,12]pentaazacyclopentadecine] | < 100
7 | C[C@@H]1Cc2ccnc(c2)-c2cnc3ccc(nn23)N2CCC[C@@H]2c2cc(F)cnc2O1 [Example I-38, (3^2R,6R,E)-4^5-fluoro-6-methyl-5-oxa-2(3,6)-imidazo[1,2-b]pyridazina-1(2,4),4(3,2)-dipyridina-3(1,2)-pyrrolidinacycloheptaphane] | < 100
8 | C[C@H]1Nc2ccc3ncc(n3n2)-c2cc(cnn2)COc2ccc(F)cc21 [Example I-82, (6R,E)-54-fluoro-6-methyl-4-oxa-7-aza-1(3,6)-imidazo[1,2-b]pyridazina-2(3,5)-pyridazina-5(1,2)-benzenacycloheptaphane] | < 100
9 | C[C@H]1Nc2ccc3ncc(n3n2)-c2cc(ncn2)CCOc2ncc(F)cc21 [Example I-73, (4R,E)-5^5-fluoro-4-methyl-6-oxa-3-aza-2(3,6)-imidazo[1,2-b]pyridazina-1(4,6)-pyrimidina-5(3,2)-pyridinacyclooctaphane] | < 100
10 | Fc1ccc2c(c1)[C@H]1CCCN1c1ccc3ncc(n3n1)-c1cc(cnn1)CO2 [Example I-65, (14bR,E)-13-fluoro-14b,15,16,17-tetrahydro-9H-1,19-etheno-4,8-(metheno)benzo[n]imidazo[5,1-h]pyrrolo[1,2-l][1]oxa[5,6,9,10,12]pentaazacyclopentadecine] | < 100
11 | CC1Nc2ccc3ncc(n3n2)-c2cc(ccn2)OCc2ccc(F)cc21 (stereo not drawn) [Example I-13, (E)-5^4-fluoro-6-methyl-3-oxa-7-aza-1(3,6)-imidazo[1,2-b]pyridazina-2(2,4)-pyridina-5(1,2)-benzenacycloheptaphane] | < 100
12 | CC1(C)Nc2ccc3ncc(n3n2)-c2cc(ccn2)COc2ccc(F)cc21 [Example I-48, (E)-5^4-fluoro-6,6-dimethyl-4-oxa-7-aza-1(3,6)-imidazo[1,2-b]pyridazina-2(2,4)-pyridina-5(1,2)-benzenacycloheptaphane] | < 100
13 | C[C@H]1Nc2ccc3ncc(n3n2)-c2cc(ccn2)CCOc2ncc(F)cc21 [Example I-75, (4R,E)-5^5-fluoro-4-methyl-6-oxa-3-aza-2(3,6)-imidazo[1,2-b]pyridazina-1(2,4), 5(3,2)-dipyridinacyclooctaphane] | < 100
14 | C[C@H]1Nc2ccc3ncc(n3n2)-c2cc(ccn2)CCOc2ccc(F)cc21 [Example I-76, (4R,E)-5-fluoro-4-methyl-6-oxa-3-aza-2(3,6)-imidazo[1,2-b]pyridazina-1(2,4)-pyridina-5(1,2)-benzenacyclooctaphane] | < 100
15 | Fc1ccc2c(c1)[C@H]1CCCN1c1ccc3ncc(n3n1)-c1nccc(n1)CO2 [Example I-61, (14bR,E)-13-fluoro-14b,15,16,17-tetrahydro-9H-4,8-(azeno)-1,19-etheno benzo[b]imidazo[1,5-h]pyrrolo[2,1-d][1]oxa[5,7,8,11]tetraazacyclopentadecine] | < 100
16 | Fc1cnc2c(c1)[C@H]1CCCN1c1ccc3ncc(n3n1)-c1cc(ncn1)CCO2 [Example I-71, (3^2R,E)-4^5-fluoro-5-oxa-2(3,6)-imidazo[1,2-b]pyridazina-1(4,6)-pyrimidina-4(3,2)-pyridina-3(1,2)-pyrrolidinacycloheptaphane] | < 100
17 | Fc1cnc2c(c1)[C@H]1CCCN1c1ccc3ncc(n3n1)-c1cc(cnn1)CO2 [Example I-67, (14bR,E)-13-fluoro-14b,15,16,17-tetrahydro-9H-1,19-etheno-4,8-(metheno)imidazo[5,1-h]pyrido[3,2-n]pyrrolo[1,2-l][1]oxa[5,6,9,10,12]pentaazacyclopentadecine] | < 100
18 | C[C@H]1Nc2ccc3ncc(n3n2)-c2nccc(n2)CCOc2ncc(F)cc21 [Example I-83, (4R,E)-5′-fluoro-4-methyl-6-oxa-3-aza-2(3,6)-imidazo[1,2-b]pyridazina-1(2,4)-pyrimidina-5(3,2)-pyridinacyclooctaphane] | < 100
19 | C[C@H]1Nc2ccc3ncc(n3n2)-c2cc(cnn2)COc2ncc(F)cc21 [Example I-81, (6R,E)-5^5-fluoro-6-methyl-4-oxa-7-aza-1(3,6)-imidazo[1,2-b]pyridazina-2(3,5)-pyridazina-5(2,3)-pyridinacycloheptaphane] | < 100
20 | C[C@H]1Nc2ccc3ncc(n3n2)-c2cc(ncn2)CCOc2ccc(F)cc21 [Example I-74, (4R,E)-5′-fluoro-4-methyl-6-oxa-3-aza-2(3,6)-imidazo[1,2-b]pyridazina-1(4,6)-pyrimidina-5(1,2)-benzenacyclooctaphane] | < 100
21 | C[C@H]1Nc2ccc3ncc(n3n2)-c2nccc(n2)CCOc2ccc(F)cc21 [Example I-84, (4R,E)-5^5-fluoro-4-methyl-6-oxa-3-aza-2(3,6)-imidazo[1,2-b]pyridazina-1(2,4)-pyrimidina-5(1,2)-benzenacyclooctaphane] | < 100
22 | Fc1cnc2c(c1)[C@H]1CCCN1c1ccc3ncc(n3n1)-c1nccc(n1)CO2 [Example I-63, (14bR,E)-13-fluoro-14b,15,16,17-tetrahydro-9H-4,8-(azeno)-1,19-etheno imidazo[1,5-h]pyrido[2,3-b]pyrrolo[2,1-d][1]oxa[5,7,8,11]tetraazacyclopentadecine] | < 100
23 | C[C@H]1Nc2ccc3ncc(n3n2)-c2nccc(n2)COc2ncc(F)cc21 [Example I-79, (6R,E)-5^5-fluoro-6-methyl-4-oxa-7-aza-1(3,6)-imidazo[1,2-b]pyridazina-2(2,4)-pyrimidina-5(2,3)-pyridinacycloheptaphane] | < 100
24 | C[C@H]1Nc2ccc3ncc(n3n2)-c2cc(ccn2)N2CCC[C@H](C2)Oc2ccc(F)cc21 [Example I-43, (3^3R,6R,E)-5^4-fluoro-6-methyl-4-oxa-7-aza-1(3,6)-imidazo[1,2-b]pyridazina-2(2,4)-pyridina-3(1,3)-piperidina-5(1,2)-benzenacycloheptaphane] | < 100
25 | C[C@H]1Nc2ccc3ncc(n3n2)-c2cc(ccn2)N2CCC[C@@H](C2)Oc2ccc(F)cc21 [Example I-44, (3^3S,6R,E)-5^4-fluoro-6-methyl-4-oxa-7-aza-1(3,6)-imidazo[1,2-b]pyridazina-2(2,4)-pyridina-3(1,3)-piperidina-5(1,2)-benzenacycloheptaphane] | < 100
26 | C[C@H]1Nc2ccc3ncc(n3n2)-c2cc(ncn2)COc2ncc(F)cc21 [Example I-77, (6R,E)-5^5-fluoro-6-methyl-4-oxa-7-aza-1(3,6)-imidazo[1,2-b]pyridazina-2(4,6)-pyrimidina-5(2,3)-pyridinacycloheptaphane] | < 100
27 | Fc1ccc2c(c1)[C@H]1CCCN1c1ccc3ncc(n3n1)-c1cc(ccn1)CCO2 [Example I-53, (3^2R,E)-4^5-fluoro-5-oxa-2(3,6)-imidazo[1,2-b]pyridazina-1(2,4)-pyridina-3(1,2)-pyrrolidina-4(1,2)-benzenacycloheptaphane] | < 100
